Legend:
Type in all cases: cell-based, mouse
[1] = test system: PPRE-driven luciferase activity; assay: PPRE-luciferase assay in Pparb-null astrocytes with PPARγ antagonist GW9662; settings: Pparb-null astrocytes
Protocol: FIG. 16A) Pparb-null primary astrocytes plated at 60-70% confluence in 12-well plates were transfected with 0.25 μg of tkPPREx3-Luc (a PPRE-dependent luciferase reporter construct). Twenty-four hours after transfection, cells were treated with different concentrations of GW9662 for 30 min followed by stimulation with rosiglitazone. After 4 h, luciferase activities were assayed. […] After transfection, cells were also treated with GW9662 followed by stimulation with OCT (FIG. 16B), HEX (FIG. 16C) and HMB (FIG. 16D).
These astrocytes were pre-treated with PPARγ-antagonist GW9662 to nullify the involvement of PPARγ in reporter assay.

[2] = test system: PPRE-driven luciferase activity; assay: PPRE-luciferase assay in Ppara-null astrocytes transduced with Ppara constructs; settings: Ppara-null astrocytes (empty vector)
Protocol: Astrocytes plated at 60-70% confluence were transfected with tk-PPREx3-Luc, a PPRE-dependent luciferase reporter construct. After 24 h of transfection, cells were treated with different concentrations of HEX (FIG. 10A), OCT (FIG. 10B) and HMB (FIG. 10C) for 4 h followed by monitoring luciferase activity. Under similar experimental condition, MTT was performed to understand the effect of these ligands on cell viability (FIG. 10D, HEX; FIG. 10E, OCT; FIG. 10F, HMB). Results are mean±SD of three independent experiments. ^ap<0.001 vs. control. Ppara-null astrocytes were transduced with lentivirions containing empty vector (FIG. 10G), FL-Ppara (FIG. 10H), Y314D-Ppara (FIG. 10I), Y464D-Ppara (FIG. 10J), and Y314D/Y464D-Ppara (FIG. 10K) for 48 h followed by transfection with tk-PPREx3-Luc. After 24 h of transfection, cells were treated with different doses of HEX, OCT and HMB for 4 h followed by monitoring luciferase activity. PPRE luciferase activity was assayed in Ppara-null astrocytes transduced with lentivirions containing empty vector (FIG. 10L), FL-Ppara (FIG. 10M), Y314D-Ppara (FIG. 10N), Y464D-Ppara (FIG. 10O), and Y314D/Y464D-Ppara (FIG. 10P) after treatment with different doses of WY14643, fenofibrate, and clofibrate. PPRE luciferase activity was assayed in primary hippocampal neurons transduced with lentivirions containing empty vector (FIG. 10Q), FL-Ppara (FIG. 10R), Y314D-Ppara (FIG. 10S), Y464D-Ppara (FIG. 10T), and Y314D/Y464D-Ppara (FIG. 10U) after treatment with different doses of HEX, OCT and HMB. Results are mean±SD of three independent experiments. ^ap<0.001 vs. control.

[3] = test system: Ppara-null hippocampal neurons; assay: Dendritic spine density (phalloidin) in transduced Ppara-null hippocampal neurons; settings: lenti-FL-Ppara
Protocol: Ppara-null hippocampal neurons were transduced with lentivirions containing GFP (vector), FL-Ppara, and Y464D-Ppara for 48 h followed by treatment with vehicle (DMSO) (FIG. 11A), OCT (FIG. 11B), HEX (FIG. 11C), HMB (FIG. 11D), and WY14643 (FIG. 11E) for 24 h. Then neurons were stained for phalloidin to measure spine density. FIG. 11F) A representative picture of dendrite with spines (Cyan color) used for counting area of spine heads. Area of spine heads (FIG. 11G) and number of spines (FIG. 11H) in 10 μm of dendrites. Results are mean±SEM of 5 neurons per group. ^ap<0.05 vs vector only; ^bp<0.05 vs FL-Ppara. AMPA-driven calcium influx was measured in OCT (red), HEX (green) and HMB (purple)-treated Ppara-null hippocampal neurons transduced with lentivirions containing FL-Ppara (FIG. 11I), Y314D-Ppara (FIG. 11J), Y464D-Ppara (FIG. 11K), and Y314D/Y464D-Ppara (FIG. 11L). All neurons were treated with 50 μM of NMDA receptor antagonist N20C to inhibit passive calcium flow through NMDA receptor. (FIG. 11M-P) Similarly NMDA-driven calcium influx was measured in the lentivius-infected Ppara-null hippocampal neurons in the presence of different endogenous ligands. In these cases, Naspm-HCl was treated to stop the passive flow of calcium currents through AMPA receptor. Results are mean of three independent experiments.
Dendritic spines are the crucial mediators of synaptic transmission among central neurons and often serve as a primary candidate for the long term morphological substrates of neuronal plasticity^12,13. Therefore, the effect of these ligands on the increase of spine density in cultured hippocampal neurons was studied. Briefly, mouse Ppara-null hippocampal neurons were transduced with lentivirus containing empty vector, FL-Ppara, or Y464D-Ppara for a week followed by the treatment with OCT, HEX, and HMB for four more days. After that, neurons were labelled with phalloidin to monitor the spine density. […] This observation was further validated by measuring the area of spine heads (FIG. 11F-G) and number of spines (FIG. 11H) in HEX, OCT, and HMB-treated Ppara-null neurons. HEX (FIG. 17G-H), OCT (FIG. 17I-J) and HMB (FIG. 17K-L) stimulated the expression of CREB in Ppara-null hippocampal neurons that were transduced with lentivirons containing the FL-Ppara gene.
Hippocampal regions were dissected from 18-day-old embryonic fetus as described elsewhere (PMID: 25007337), combined and plated in poly-D-lysine coated plate for another 2-3 weeks for branching. After that, these neurons were transduced with GFP-containing lentivirions for 2 d. Neurons were stained with Dylight-554-conjugated phalloidin (Cat #21834; Thermofisher) as per manufactures protocol and visualized in fluorescence microscope. […]

effect on rosiglitazone-mediated increase in PPRE-luciferase activity [1] | PPRE-driven luciferase activity [2] | SMILES | density of spines [3]
Inhibition | – | O=C(Nc1ccccc1)c1cc([N+](=O)[O-])ccc1Cl [GW9662, reference compound] | –
– | unable to induce | Cc1cccc(Nc2cc(Cl)nc(SCC(=O)O)n2)c1C [WY14643, reference compound] | stimulated

From US10617664B2, “Brain derived PPARα ligands” (Rush University Medical Center, priority 2015, dated 2020)
